Test results from US11628186B2, “Method and composition for the reduction of viral replication, duration and spread of the COVID-19 and the flu” (priority 2017, dated 2023).

Experiments:
[1] = test system: patients with lung diseases including COPD; assay: Comparison of inhaled salts of pyruvate, 5 ml of 5 mM solution (Table II)
[2] = test system: patients with lung diseases including COPD; assay: Comparison of inhaled salts of pyruvate, 5 ml of 0.5 mM solution (Table I); details: for reduction of nitric oxide: 5 mls of a 0.5 mM inhalation solution; for FEV1: 5 mls of a 0.5 mM pyruvate inhalation solution in COPD and asthmatic patients
Description: All previous studies using pyruvate to treat Allergic Rhinitis, Asthmatic and COPD patients used only the sodium salt form of pyruvic acid in saline. The drug products that were tested in the six Phase I/II clinical trial were differing concentrations of sodium pyruvate dissolved in 0.9% sodium chloride solution (Saline). These drug products contained 0.5 mM, 1.5 mM, or 5.0 mM of sodium pyruvate in physiological saline. They were administered to normal volunteers and COPD and asthmatics by inhalation therapy. […] Various sodium pyruvate solutions were evaluated in the lungs for their ability to enhance FEV1 values and reduce coughing, and lung tightness.
The amount of the salts delivered in the 5 ml's of the 0.5 mM pyruvate solutions were compared to the amounts of the salts in 5 ml's of human blood. […] When ethyl pyruvate reacts with oxygen radical like hydrogen peroxide, it is converted to ethane and alcohol and Co2 and acetate. Ethane and alcohol are lung irritants.
This formula can also be made by adding 3% calcium phosphate or dicalcium phosphate to the standard 0.5 mM to 30 mM sodium pyruvate saline solution see Table I.

[3] = test system: patients with sinus & lung diseases including IPF and COPD; assay: Salts of pyruvate as 20 mM nasal sprays (Table IX)
Source text: They never tested the individual salts for their ability to reduce inflammation or increase lung functions.

[4] = test system: patients with chronic Hypoxemia; assay: Various drugs with or without pre-inhaled pyruvate formulas (Table VII); format: in vivo, human; parameters: SaO2 Measurements taken after medication and compared to baseline / SaO2 Measurements taken after taking the medication and compared to baseline: unit not given here
Description: With the hundreds of patients tested in our various clinical trials, data was gathered as to the type of medications the patients used and the frequency of their use over a six-month period. The patients were asked to rate their medications form 1-10 with 1 being the most irritating with the most side effects and 10 being the best with no irritation and no side effects. In these clinical trials, various drugs were evaluated for irritation, mucus production, and efficacy in humans. The drugs were all evaluated using their current formulations and concentrations against the same formulations with the addition of sodium pyruvate, with the calcium, phosphate and magnesium formula given just prior to the use of their medications. They were instructed to 20 inhale this formula just prior to the use of their medications and to evaluate the effect of their medications on the 1-10 scale.
Patients on the various inhaled medications whether inhaled or taken orally or by IV infusion, were enlisted in the evaluation of the inhaled sodium pyruvate calcium, phosphate and magnesium formula. The patients were tested for their SaO2 levels and those that had SaO2 levels below 92% were asked to enlist in the study. […] After the SaO2 levels were determined prior to and one hour after taking their medications, the patients returned the following day, SaO2 measurements were taken one hour prior to taking their medications. The patients were then handed the hypotonic inhalation formula of sodium pyruvate with calcium, phosphate magnesium formula and instructed to inhale it one hour before taking their medications, SaO2 measurements were then taken one hour after taking their medications.

[5] = 5 ml of 5 mM solution in saline, inhaled
[6] = 5 ml of 5 mM solution, 1 most negative, 10 best
[7] = 5 ml of 0.5 mM solution in physiological saline, inhaled
[8] = 5 ml of 0.5 mM solution, inhaled
[9] = 5 ml of 0.5 mM solution, 1 most negative, 10 best
[10] = 20 mM (0.22%) nasal spray in 0.9% sodium chloride
[11] = 20 mM (0.22%) nasal spray, 1 most negative, 10 best

| Compound | Increased in FEV-1% [1, 5] | Irritation ([1]; 5 ml of 5 mM solution, inhaled) | Percentage Increase in SaO2 over baseline ([1]; 5 ml of 5 mM solution, inhaled) | Percentage increase of Nitric Oxide over baseline ([1]; 5 ml of 5 mM solution, inhaled) | Relief of congestion, coughing and lung tightness ([1]; 5 ml of 5 mM solution, inhaled) | Overall Rating 1-10 [1, 6] | Increased in FEV-1% lung function [2, 7] | Irritation [2, 8] | Percentage Increase in SaO2 over baseline [2, 8] | Percentage decrease or increase of Nitric Oxide over baseline [2, 8] | Relief of congestion, coughing and lung tightness [2, 8] | Overall Rating 1-10 [2, 9] | reduction of nitric oxide [2] | Increased in FEV-1% [3, 10] | Percentage Increase in SaO2 over baseline [3, 10] | Percentage increase of Nitric Oxide over baseline [3, 10] | Relief of congestion, coughing and lung tightness [3, 10] | Overall Rating 1-10 [3, 11] | Increased in FEV-1% ([3]; in vivo) | Percentage Increase in SaO2 over baseline ([3]; in vivo) | further results |
| --- | --- | --- | --- | --- | --- | --- | --- | --- | --- | --- | --- | --- | --- | --- | --- | --- | --- | --- | --- | --- | --- |
| CC(=O)C(=O)O.N [Ammonium, ammonium pyruvate] | 0% | Yes | No | 35.0% | 1 | 1 | 0% | Yes | No | +5.0% | 1 | 1 | did not reduce nitric oxide | 0.0% | No | 00.0% | 1 | 1 | – | – | irritation in the nasal cavities compared with the lungs ([2]; evaluated in the nasal cavities): even more irritating; Irritation ([2]; inhaled into the lungs): irritating; Irritation [3, 10]: Yes |
| CC(=O)N[C@@H](CS)C(=O)O [N-acetylcysteine, reference compound] | 2% | yes | 0% | 1% | 7 | 7 | 6% | None | 0% | 0% | 8 | 7 | – | – | – | – | – | – | – | – | SaO2 Measurements taken after medication and compared to baseline ([4]; Drug in commercial formula taken in prescribed way): +1; SaO2 measurements taken after taking medication and compared to baseline ([4]; Drug in commercial formula with Pre-inhaled sodium pyruvate, calcium & phosphate & magnesium): +4; SaO2 Measurements taken after taking the medication and compared to baseline ([4]; Drug in commercial formula with pre-inhaled sodium pyruvate saline only): 0; Lung functions (rating 1-10) ([4]; Drugs commercial formula given as instructed in the package): 4; Lung functions (rating 1-10) ([4]; Drugs in commercial formula Pre-inhaled sodium pyruvate & calcium & phosphate & magnesium): 8; Lung functions (rating 1-10) ([4]; Drugs in commercial formula with pre-inhaled sodium pyruvate in saline only): 6 |
| O=P(O)(O)O [Potassium Phosphate, reference compound] | – | – | – | – | – | – | – | – | – | – | – | – | – | – | – | – | – | – | 0.0% | No | Increased in FEV-1% ([1]; in vivo): 0%; Overall Rating 1-10 ([1]; in vivo): 3; Percentage Increase in SaO2 over baseline ([1]; in vivo): No; Percentage increase of Nitric Oxide over baseline ([1]; in vivo): 0%; Relief of congestion, coughing and lung tightness ([1]; in vivo): 4; Increased in FEV-1% lung function ([2]; in vivo): 0%; Overall Rating 1-10 ([2]; in vivo): 3; Percentage Increase in SaO2 over baseline ([2]; in vivo): No; Percentage decrease or increase of Nitric Oxide over baseline ([2]; in vivo): 0%; Relief of congestion, coughing and lung tightness ([2]; in vivo): 4; Overall Rating 1-10 ([3]; in vivo): 3; Percentage increase of Nitric Oxide over baseline ([3]; in vivo): 0%; Relief of congestion, coughing and lung tightness ([3]; in vivo): 4 |
| CC(=O)C(=O)[O-].[K+] [Potassium, potassium pyruvate] | 2.1% | None | no | 25.0% | 5 | 7 | 8.0% | None | no | −14% | 5 | 7 | – | – | – | – | – | 6 | 6.1% | no | FEV1 [2]: lower FEV1 results; Irritation ([3]; in vivo): None; Percentage increase of Nitric Oxide over baseline ([3]; in vivo): 10.0%; Relief of congestion, coughing and lung tightness ([3]; in vivo): 5 |
| CCOC(=O)C(C)=O [ethyl pyruvate, reference compound] | – | – | – | – | – | – | – | – | – | – | – | – | – | – | – | – | – | – | – | – | FEV1 [2]: did not increase FEV-1; Irritation ([2]; in vivo): irritating |
| aluminum pyruvate | 0% | – | No | 15.0% | 1 | 4 | 0% | – | No | +8.0% | 1 | 3 | did not reduce nitric oxide | 0.0% | No | 00.0% | 1 | 1 | – | – | – |
| calcium pyruvate | 1.0% | None | 1% | 17.0% | 5 | 7 | 10.0% | None | no | −18% | 5 | 7 | – | – | – | – | – | 7 | 7.0% | 1% | FEV1 [2]: 10%; Irritation ([3]; in vivo): None; Percentage increase of Nitric Oxide over baseline ([3]; in vivo): 17.0%; Relief of congestion, coughing and lung tightness ([3]; in vivo): 5 |
| manganese pyruvate | 3.0% | – | No | 25.0% | 4 | 3 | 3.0% | – | No | −2.0% | 4 | 3 | did not reduce nitric oxide | 0.0% | No | 2.0% | 4 | 3 | – | – | – |
